Tested on: neutrophils activated by fMLP
Assay: superoxide production from human neutrophils activated by fMLP (cytochrome C reduction)
Assay type: cell-based
Conditions: Neutrophil; fMLP-induced superoxide production, neutrophils from human peripheral blood, cytochalasin B priming, adenosine deaminase present; read-out: IC50 (concentration giving 50% inhibition compared to the control response to fMLP)
Experimental: This is evaluated by determining the compound profile in an assay where superoxide production was measured from neutrophils activated by fMLP. Neutrophils were isolated from human peripheral blood using dextran sedimentation followed by centrifugation through Ficoll-Hypaque solution. Any contaminating erythrocytes in the granulocyte pellet were removed by lysis with ice-cold distilled water. Superoxide production from the neutrophils was induced by fMLP in the presence of a priming concentration of cytochalasin B. Adenosine deaminase was included in the assay to remove any endogenously produced adenosine that might suppress superoxide production. The effect of the compound on the fMLP-induced response was monitored colorometrically from the reduction of cytochrome C within the assay buffer. The potency of the compounds was assessed by the concentration giving 50% inhibition (IC50) compared to the control response to fMLP.

IC50 | SMILES
< 0.04 µM | CCNC(=O)[C@H]1O[C@@H](n2cnc3c(NC(CC)CC)nc(C(=O)NCCN4CCCCC4)nc32)[C@H](O)[C@@H]1O [Example 10, 9-{(2R,3R,4S, 5S)-5-[(ethylamino)carbonyl]-3,4-dihydroxytetrahydro-2-furanyl}-6-[(1-ethylpropyl)amino]-N-[2-(1-piperidinyl)ethyl]-9H-purine-2-carboxamide]
< 0.04 µM | CCNC(=O)[C@H]1O[C@@H](n2cnc3c(NCC(c4ccccc4)c4ccccc4)nc(C(=O)NCCN4CCC(C)CC4)nc32)[C@H](O)[C@@H]1O [Example 31, 6-[(2,2-diphenylethyl)amino]-9-{(2R,3R,4S,5S)-5-[(ethylamino)carbonyl]-3,4-dihydroxytetrahydro-2-furanyl}-N-[2-(4-methyl-1-piperidinyl)ethyl]-9H-purine-2-carboxamide]
< 0.04 µM | CCNC(=O)[C@H]1O[C@@H](n2cnc3c(NCC(c4ccccc4)c4ccccc4)nc(C(=O)NCCCN(C)C)nc32)[C@H](O)[C@@H]1O [Example 27, N-[3-(dimethylamino)propyl]-6-[(2,2-diphenylethyl)amino]-9-{(2R,3R,4S,5S)-5-[(ethylamino)carbonyl]-3,4-dihydroxytetrahydro-2-furanyl}-9H-purine-2-carboxamide]
< 0.04 µM | CCNC(=O)[C@H]1O[C@@H](n2cnc3c(NCC4c5ccccc5-c5ccccc54)nc(C(=O)NCCN4CCCCC4)nc32)[C@H](O)[C@@H]1O [Example 20, 9-{(2R,3R,4S,5S)-5-[(ethylamino)carbonyl]-3,4-dihydroxytetrahydro-2-furanyl}-6-[(9H-fluoren-9-ylmethyl)amino]-N-[2-(1-piperidinyl)ethyl]-9H-purine-2-carboxamide]
< 0.04 µM | CCNC(=O)[C@H]1O[C@@H](n2cnc3c(NCC(c4ccccc4)c4ccccc4)nc(C(=O)NCCCN(CC)CC)nc32)[C@H](O)[C@@H]1O [Example 21, N-[3-(diethylamino)propyl]-6-[(2,2-diphenylethyl)amino]-9-{(2R,3R,4S,5S)-5-[(ethylamino)carbonyl]-3,4-dihydroxytetrahydro-2-furanyl}-9H-purine-2-carboxamide]
< 0.04 µM | CCNC(=O)[C@H]1O[C@@H](n2cnc3c(NCC(c4ccccc4)c4ccccc4)nc(C(=O)NCCCN4CCCC4)nc32)[C@H](O)[C@@H]1O [Example 7, 6-[(2,2-diphenylethyl)amino]-9-{(2R,3R,4S,5S)-5-[(ethylamino)carbonyl]-3,4-dihydroxytetrahydro-2-furanyl}-N-[3-(1-pyrrolidinyl)propyl]-9H-purine-2-carboxamide]
< 0.04 µM | CCNC(=O)[C@H]1O[C@@H](n2cnc3c(NCC(c4ccccc4)c4ccccc4)nc(C(=O)NCCN4CCC(C(C)C)CC4)nc32)[C@H](O)[C@@H]1O [Example 12, 6-[(2,2-diphenylethyl)amino]-9-{(2R,3R,4S,5S)-5-[(ethylamino)carbonyl]-3,4-dihydroxytetrahydro-2-furanyl}-N-[2-(4-isopropyl-1-piperidinyl)ethyl]-9H-purine-2-carboxamide]
< 0.04 µM | CCNC(=O)[C@H]1O[C@@H](n2cnc3c(NCC(c4ccccc4)c4ccccc4)nc(C(=O)NCCCNC(C)C)nc32)[C@H](O)[C@@H]1O [Example 16, 6-[(2,2-diphenylethyl)amino]-9-{(2R,3R,4S,5S)-5-[(ethylamino)carbonyl]-3,4-dihydroxytetrahydro-2-furanyl}-N-[3-(isopropylamino)propyl]-9H-purine-2-carboxamide]
